Measured values as given in article PMC11470414, “In vitro assessment of Dracocephalum lindbergii for growth inhibition, apoptosis induction, and cytokine modulation against Leishmaniamajor” (Heliyon, 2024).
Values after ≈ are worked out from the molar mass of the structure shown. Where two headings read alike, the source gives them in different places.

Legend:
[1] = DPPH radical-scavenging antioxidant assay; conditions: DPPH method, 517 nm
Experimental: The scavenging effect on 2,2-diphenyl-1-picrylhydrazyl (DPPH) free radicals was determined based on the reduction of DPPH as a stable free radical. The optical densities were measured at a wavelength of 517 nm. The elimination of free radicals was calculated using the following formula:= (absorbance of control-absorbance of the sample) / (absorbance of control) × 100.

L. major = system: L. major; set-up: method as in PMID 33531168; conditions: after 16 h of incubation; control 14 %; cited from earlier work
[2] = system: L. major intramacrophage amastigotes; assay: Anti-amastigote activity: counting Leishman bodies in 100 Giemsa-stained macrophages; assay type: cell-based, Leishmania major; conditions: for IC50: Leishmania major, Macrophage
Experimental: To assess the leishmanicidal effect on L. major intramacrophage amastigotes, macrophages (10⁷ cells) were cultured for 24 h. Subsequently, 200 μL of metacyclic promastigotes were introduced to the macrophages at a 10:1 ratio. […] The cells were washed with 50 μL PBS to eliminate free parasites, fixed with methanol, and stained using Giemsa. The IC₅₀, defined as the concentration required to inhibit 50 % of the leishmanial organisms, was determined by counting Leishman bodies (amastigotes) in 100 macrophages under an optical microscope. All experiments were performed in triplicate.
To evaluate the leishmanicidal effects on L. major intramacrophage amastigotes, macrophages (1 × 10⁷ cells) were cultured for 24 h. Following this, 200 μL of metacyclic promastigotes were added to the macrophages at a 10:1 ratio. […] The cells were then washed with 50 μL PBS to remove any free parasites, fixed in methanol, and stained with Giemsa. The IC₅₀, or the concentration that inhibits 50 % of the leishmanial organisms, was assessed by counting Leishman bodies (amastigotes) in 100 macrophages under an optical microscope. Each experiment was conducted in triplicate, including negative controls (macrophages and parasites without treatment) and positive controls (macrophages and parasites treated with a known effective drug) for comparison.

L. major promastigotes = assay: Anti-promastigote activity (MTT, IC50); assay type: cell-based, Leishmania major; conditions: for IC50: Leishmania major
Experimental: (§1) To assess the impact of the D. lindbergii fraction on L. major promastigotes, amastigotes, and macrophages, cell viability was determined using the 3-(4,5-dimethylthiazol-2-yl)-2,5-diphenyl tetrazolium bromide (MTT). L. major in the logarithmic growth phase (1 × 10⁶) was plated in a 96-well microplate using RPMI-1640 medium supplemented with 10 % FBS and treated with different concentrations of the samples. The plates were then incubated. Subsequently, 10 μL of MTT (Sigma Chemical Co., St. Louis, MO) at a concentration of 5 mg/mL was added to each well. After incubation, DMSO was added to stop the reactions, and the optical density (OD) absorbance of the samples was measured at 570 nm using an ELISA plate reader (BioTek Company, USA). The results were analyzed by calculating the inhibition percentage through linear regression.
Drug susceptibility assays were conducted using promastigotes in the logarithmic growth phase. A volume of 90 μL of cultured L. major promastigotes (1 × 10⁶ cells/mL) was transferred to each well of a 96-well microplate. […] The reactions were stopped, ELISA readings were taken, and the IC₅₀ (50 % inhibitory concentration) was calculated according to established protocols.

[3] = Toxicity on macrophages (MTT, CC50); assay type: cell-based; conditions: human, THP-1 macrophage cell line
Experimental: (§2) The promastigote form of L. major (MRHO/IR/75/ER), the national standard isolate, was obtained from the Pasteur Institute of Iran and cultured at 25 °C in RPMI-1640 medium containing 10 % heat-inactivated FBS and 1 % penicillin/streptomycin. The THP-1 macrophage cell line, provided by the Kerman Leishmaniasis Research Center, was grown in Dulbecco's Modified Eagle Medium (DMEM) supplemented with 10 % FBS and 0.5 % antibiotics (Sigma, Poole, UK), and incubated at 37 °C with 5 % CO₂ [21].
as §1

[4] = system: macrophage cell line (THP-1); assay: Toxicity on macrophages (MTT, CC50); assay type: cell-based
Experimental: as §2, §1

L. major amastigotes = assay: Apoptotic profile by flow cytometry (PE-Annexin V / 7-AAD); assay type: cell-based, Leishmania major; conditions: 100 μg/mL, vs negative control P < 0.001
Experimental: Apoptosis in L. major amastigotes was evaluated using flow cytometry with the BD Annexin V/PE Apoptosis Detection Kit (Fisher Scientific). […] After treatment, the parasites were washed with PBS and incubated in the dark at 25 °C with 5 μL of PE-Annexin V and 7 μL of 7-AAD for 15 min. The proportion of apoptotic parasites was then evaluated using FlowJo software.

Molecule: COc1ccc(O)c(C(C)(C)C)c1 [BHA, butylated hydroxyanisole]
- IC50 of DPPH radical scavenging [1]: 249.3 µg/mL

Molecule: COc1cc(/C=C/C(=O)CC(=O)/C=C/c2ccc(O)c(OC)c2)ccc1O [curcumin]
- maximum accumulation of S-phase cells (L. major): about 33%

Molecule: C[C@@H]1[C@H](O)[C@@H](C)/C=C/C=C/C=C/C=C/C=C/C=C/C=C/[C@H](O[C@@H]2O[C@H](C)[C@@H](O)[C@H](N)[C@@H]2O)C[C@@H]2O[C@](O)(C[C@@H](O)C[C@@H](O)[C@H](O)CC[C@@H](O)C[C@@H](O)CC(=O)O[C@H]1C)C[C@H](O)[C@H]2C(=O)O [Amphotericin B]
- average number of intramacrophage amastigotes (Mean ± SD) ([2]; 24 h, 12.5 μg/mL): 34.2 ± 3.6
- average number of intramacrophage amastigotes (Mean ± SD) ([2]; 24 h, 25 μg/mL): 25.3 ± 4.2
- average number of intramacrophage amastigotes (Mean ± SD) ([2]; 24 h, 50 μg/mL): 20.4 ± 1.8
- average number of intramacrophage amastigotes (Mean ± SD) ([2]; 24 h, 100 μg/mL): 13.6 ± 2.6
- average number of intramacrophage amastigotes (Mean ± SD) ([2]; 24 h, 200 μg/mL): 3.6 ± 0.4
- average number of intramacrophage amastigotes (Mean ± SD) ([2]; 24 h, 400 μg/mL): 0.0 ± 0.0
- average number of intramacrophage amastigotes (Mean ± SD) ([2]; 48 h, 12.5 μg/mL): 41.4 ± 3.0
- average number of intramacrophage amastigotes (Mean ± SD) ([2]; 48 h, 25 μg/mL): 30.1 ± 2.2
- average number of intramacrophage amastigotes (Mean ± SD) ([2]; 48 h, 50 μg/mL): 21.6 ± 2.4
- average number of intramacrophage amastigotes (Mean ± SD) ([2]; 48 h, 100 μg/mL): 10.1 ± 1.9
- average number of intramacrophage amastigotes (Mean ± SD) ([2]; 48 h, 200 μg/mL): 2.6 ± 0.3
- average number of intramacrophage amastigotes (Mean ± SD) ([2]; 48 h, 400 μg/mL): 0.0 ± 0.0
- average number of intramacrophage amastigotes (Mean ± SD) ([2]; 72 h, 12.5 μg/mL): 50.4 ± 4.8
- average number of intramacrophage amastigotes (Mean ± SD) ([2]; 72 h, 25 μg/mL): 42.3 ± 5.2
- average number of intramacrophage amastigotes (Mean ± SD) ([2]; 72 h, 50 μg/mL): 33.4 ± 3.0
- average number of intramacrophage amastigotes (Mean ± SD) ([2]; 72 h, 100 μg/mL): 20.4 ± 2.4
- average number of intramacrophage amastigotes (Mean ± SD) ([2]; 72 h, 200 μg/mL): 10.3 ± 0.8
- average number of intramacrophage amastigotes (Mean ± SD) ([2]; 72 h, 400 μg/mL): 0.0 ± 0.0
- IC50 ([2]; 24 h, read-out: Amastigote (24 h) IC50 ± SD): 134 ± 18.6 µg/mL (≈ 145 µM)
- IC50 ([2]; 48 h, read-out: Amastigote (48h) IC50 ± SD): 129 ± 14.2 µg/mL (≈ 139 µM)
- IC50 ([2]; 72 h, read-out: Amastigote (72h) IC50 ± SD): 101 ± 18.3 µg/mL (≈ 110 µM)
- IC50 (L. major promastigotes; 24 h, read-out: Promastigote (24 h) IC50 ± SD): 308 ± 22 µg/mL (≈ 333 µM)
- IC50 (L. major promastigotes; 48 h, read-out: Promastigote (48h) IC50 ± SD): 294 ± 15.3 µg/mL (≈ 318 µM)
- IC50 (L. major promastigotes; 72 h, read-out: Promastigote (72h) IC50 ± SD): 264 ± 20.7 µg/mL (≈ 285 µM)
- CC50 at 24 h ([3]; 24 h): 792 ± 28.6 µg/mL (≈ 857 µM)
- CC50 at 48 h ([3]; 48 h): 772 ± 24.6 µg/mL (≈ 836 µM)
- CC50 at 72 h ([3]; 72 h): 749 ± 18.6 µg/mL (≈ 810 µM)
- SI= CC50 Macrophages/IC50 Amastigotes (Selectivity Index) ([4]; 24 h): 5.93
- SI = CC50Macrophages/IC50Amastigotes (Selectivity Index) ([4]; 72 h): 7.40
- induction of apoptosis in intra-macrophage amastigotes (L. major amastigotes): significant induction of apoptosis

Molecule: meglumine antimoniate [MAT]
- Amastigote (24 h) IC50 ± SD ([2]; 24 h): 127.3 ± 14.9
- average number of intramacrophage amastigotes (Mean ± SD) ([2]; 24 h, 12.5 μg/mL): 31.1 ± 4.2
- average number of intramacrophage amastigotes (Mean ± SD) ([2]; 24 h, 25 μg/mL): 22.3 ± 3.1
- average number of intramacrophage amastigotes (Mean ± SD) ([2]; 24 h, 50 μg/mL): 18.6 ± 2.5
- average number of intramacrophage amastigotes (Mean ± SD) ([2]; 24 h, 100 μg/mL): 11.4 ± 2.2
- average number of intramacrophage amastigotes (Mean ± SD) ([2]; 24 h, 200 μg/mL): 2.1 ± 0.1
- average number of intramacrophage amastigotes (Mean ± SD) ([2]; 24 h, 400 μg/mL): 0.0 ± 0.0
- Amastigote (48h) IC50 ± SD ([2]; 48 h): 112.6 ± 9.5
- average number of intramacrophage amastigotes (Mean ± SD) ([2]; 48 h, 12.5 μg/mL): 39.6 ± 1.1
- average number of intramacrophage amastigotes (Mean ± SD) ([2]; 48 h, 25 μg/mL): 27.6 ± 1.8
- average number of intramacrophage amastigotes (Mean ± SD) ([2]; 48 h, 50 μg/mL): 18.4 ± 2.0
- average number of intramacrophage amastigotes (Mean ± SD) ([2]; 48 h, 100 μg/mL): 8.6 ± 0.9
- average number of intramacrophage amastigotes (Mean ± SD) ([2]; 48 h, 200 μg/mL): 2.2 ± 0.4
- average number of intramacrophage amastigotes (Mean ± SD) ([2]; 48 h, 400 μg/mL): 0.0 ± 0.0
- Amastigote (72h) IC50 ± SD ([2]; 72 h): 93.6 ± 15.2
- average number of intramacrophage amastigotes (Mean ± SD) ([2]; 72 h, 12.5 μg/mL): 49.3 ± 5.7
- average number of intramacrophage amastigotes (Mean ± SD) ([2]; 72 h, 25 μg/mL): 40.3 ± 6.4
- average number of intramacrophage amastigotes (Mean ± SD) ([2]; 72 h, 50 μg/mL): 31.2 ± 4.1
- average number of intramacrophage amastigotes (Mean ± SD) ([2]; 72 h, 100 μg/mL): 18.4 ± 2.5
- average number of intramacrophage amastigotes (Mean ± SD) ([2]; 72 h, 200 μg/mL): 8.6 ± 0.2
- average number of intramacrophage amastigotes (Mean ± SD) ([2]; 72 h, 400 μg/mL): 0.0 ± 0.0
- Promastigote (24 h) IC50 ± SD (L. major promastigotes; 24 h): 301.8 ± 24.3
- Promastigote (48h) IC50 ± SD (L. major promastigotes; 48 h): 286.2 ± 17.3
- Promastigote (72h) IC50 ± SD (L. major promastigotes; 72 h): 251.6 ± 28.4
- induction of apoptosis in intra-macrophage amastigotes (L. major amastigotes): significant induction of apoptosis
